Here are results for one molecule from patent publication US7803844B2, “Composition for preventing and/or treating bone disease, physiologically functional or health food containing thereof, and pharmaceutical containing thereof as active ingredients” (Erina Co. Inc., priority 2004, dated 2010).

For data set [1], the system named is MφRAW264 cells. In words: Inhibition assay I of the early phase differentiation of osteoclast (TRAP activity). The format is cell-based. The source says: Macrophage RAW264 cell line (RIKEN. cell No. CB0535, herein below, referred to as “MφRAW264”), which may differentiate to osteoclast-like cells, was used in the inhibition assay of the early phase differentiation of osteoclast. α-MEM (Invitrogen Co., Cat. No. 11900-024) including 10% of fetal bovine serum (Asahi Technoglass Co., (IWAKI), Cat. No. IWK-500) was used for cultivating MφRAW264. Osteoclast differentiation factor (ODF/RANKL) was purchased from Pepro Tech Inc., Cat. No. 310-01. Inhibition assay I of the early phase differentiation of osteoclast was performed for evaluating the inhibition level of the bone resorption in vitro, the differentiation assay of osteoclast from MφRAW264 cells in early stage. Results of the osteoclast assay were evaluated by determining tartrate resistant acid phosphatase (TRAP) activity, an early stage differentiation marker, and TRAP staining. By using these two indices, activities of flavones from MφRAW264 cells to osteoclast are quantitatively evaluated. MφRAW264 cells were suspended in a α-MEM supplemented 10% of fetal bovine serum (FBS), which is referred to as “10% FBS-MEM herein below”, and plated at 1×10^5 cells/10 mL in 100 mm φ dishes. Then, the dishes were incubated under the presence of 5% of CO2, at 37° C. for 3 days. After confirmed that the plated cells in the dishes became confluent, the incubation was finished. Subsequently, when the cells became confluent, they were treated by using 0.05% of trypsin and Hank's balanced salt solution containing 0.53 mM of EDTA (0.05% Trypsin-0.53 mM EDTA/HBSS (Invitrogen Co., Cat. No. 25300-054) to scrape them, and then suspended in 10% FBS-MEM to plate 0.4×10^4 cells/0.1 mL per each well of 96-well microplates. Then, the plates were incubated one day under the same condition as described above. Osteoclast differentiation factor (ODF/RANKL) was dissolved in 10% FBS-MEM to prepare 100 ng/mL of solution. Alternatively, a stock solution of honokiol was prepared at the concentration of 10 mM in methanol, and stored at −20° C. […] Equal volume of methanol was solely added into the control wells. Honokiol used in the following experiments were the solutions having each concentration prepared as described above. […] Equal volume of methanol without honokiol was added into the control wells. […] Incubation medium in each well of the 96-well microplate was discarded. […] After drying, tartrate resistant acid phosphatase activity was determined (hereinafter, it is referred to as “TRAP assay”), and staining of cells in the well was performed. […] Thirty minutes later, the reaction was terminated by adding 0.1 mL of 0.1 M NaOH, and released p-nitrophenol was determined by the spectrophotometer (Dainippon Pharmaceutical Co. Ltd.) at wave length 405 nm. […]

The subject of data set [2] is MφRAW264 cells. Kind of data set: Proliferated cell number counting assay (XTT cell viability). The following applies: XTT, 3 days. The protocol: As a non-RI method for determining cell proliferation and cell viability, color reaction by using XTT was employed. MφRAW264 cells were suspended in 10% FBS-MEM, and plated into the 96-well microplate at 0.4×10^4 cells/0.1 mL; then incubated for 1 day. Subsequently, 10% FBS-MEM solution of osteoclast differentiation factor (ODF/RANKL), 100 ng/mL, was added into 0.1 mL per well at final concentration of RANKL, 50 ng/mL. At the same time, honokiol solution at respective concentration was added into the wells. For the control wells, equal volume of methanol not including honokiol was added.
After 3 days incubation, the proliferated cells were counted by using commercially available Cell Proliferation Kit II (Roche Diagnostics Inc., Cat. No. 1 465 015) to obtain the cell viability. The procedure was carried out according to the instruction manual attached, and brief summaries were as follows.
XTT labeling reagent and electron coupling reagent included in the kit were mixed at the ratio of 50:1, and 50 μL of mixture was added per 0.1 mL of medium in each well; then reacted for 4 hours at 37° C. After the termination of the reaction, absorbance at 492 nm of the wave length was measured by using ELISA plate reader (Dainippon Pharma Co.), wherein the reference wave length was 690 nm.
In the above-mentioned (2-2), the same cell proliferation counting assay II was performed instead of honokiol to magnolol and their concentration used was at the range from 20 to 60 μM.

For data set [3], the system named is M-CSF dependent cells derived from mice bone marrow cells (BMM). In words: Inhibition assay II of the early stage differentiation of osteoclast (TRAP activity). The format is cell-based, mouse.
Method: Mouse bone marrow cells were obtained from femurs and shanks of male ddy mice from 6 to 9 week age (Chubu Kagaku Shizai Co. Ltd.)
From 6 to 9 week ages of ddy mice, the femurs and shanks were excised. The bone row cells were extruded from these bones by using a syringe with 22 G×1 and ¼ gauge needle to obtain.
Obtained bone marrow cells were suspended in 10% FBS-MEM supplemented with 100 μg/mL of sodium streptomycin, 100 U/mL of sodium penicillin G, 50 ng/mL of M-CSF, and 1 ng/mL of TGF-β, and then inoculated to each well of the 96-well microplate at the cell concentration of 1×10^6 cells/0.1 mL/well. Then, the plates were incubated under the presence of 5% CO2, at 37° C.
After 3 days incubation, the culture medium was exchanged to that including 50 ng/mL of M-CSF and 50 ng/mL of osteoclast differentiation factor (DF/RANKL), simultaneously honokiol prepared as the same concentration as used in the example 1 was added. The medium of the control group was exchanged that including M-CSF and ODF/RANKL, but no honokiol. The plates were further incubated under the condition of the presence of 5% CO2, at 37° C.
After 1.5 days from the medium exchange, tartrate resistant acid phosphatase activity, the early stage differentiation marker, was measured. Medium in each well was discarded and washed plate with PBS, the cells in the well was fixed for 15 minutes by using 10% HCHO/PBS. Furthermore, the cells were fixed by using ethanol-acetone (1:1) mixture. After fixation, the fixed mixture was discarded and dried at room temperature. After drying, tartrate resistant acid phosphatase (TRAP) of the cells in each well was measured and stained similarly to those in the example 1.
The inhibition assay of the early stage differentiation of osteoclast was carried out similarly to the described above, except honokiol used in the above mentioned (3-2) was substituted to magnolol, and its concentration was from 20 to 60 μM.
Data set [4] shares this test system. In words: Cell proliferation counting assay (XTT) in bone marrow derived cells. The following applies: mouse bone marrow M-CSF dependent cells. The protocol:
Alternatively, the cell proliferation counting assay was performed as the same as that in the example 1, the cell viability was obtained. In FIG. 2A, the cell viability was shown as white columns.
(In general: Tetrazolium assays rely on reduction of a dye to a coloured formazan, in cell work by metabolically active cells.)

Data set [5] concerns acid phosphatase. The following applies: cited from earlier work.

What is called IC50 is the concentration needed to halve the response being measured. With `C=CCc1ccc(O)c(-c2cc(CC=C)ccc2O)c1` [magnolol], the “TRAP activity (control %)” value in data set [1] (MφRAW264 cells stimulated by 50 ng/mL ODF/RANKL, 3 days, honokiol 3-30 μM, magnolol 20-60 μM) is listed as “dose-dependently inhibited”; in data set [3] (mouse bone marrow M-CSF dependent cells, 50 ng/mL RANKL, 1.5 days, honokiol 3-30 μM, magnolol 20-60 μM), “dose-dependently inhibited”. For the same molecule, the IC50 in data set [1] (Osteoclast, 72 h, read-out: IC50, inhibition of MφRAW264 cells to osteoclast by RANKL) came out at 30 µM; in data set [3] (Mus musculus, Bone marrow cell, read-out: IC50, inhibition of differentiation from M-CSF dependent bone marrow cells to osteoclast induced by RANKL), 30 µM. For the same molecule, the “cell viability (ratio against control wells = 100)” value in data set [2] (MφRAW264 cells, honokiol 3-30 μM, magnolol 20-60 μM) is “seldom decreased”. The “non-specific cytotoxicity to MφRAW264 cells” value in data set [2] was “does not show non-specific cytotoxicity”. Besides, in data set [4], the “non-specific cytotoxicity (XTT assay)” value is “did not show the non-specific cytotoxicity”. Moreover, in data set [5], the “inhibition activity of acid phosphatase” value was “has the inhibition activity of the acid phosphatase”.
